Patent US20140323952A1, “METHODS FOR PROSTATECTOMY” (priority 2011, published 2014)

Legend:
[1] = test system: men undergoing robotic radical prostatectomy; assay: Prospective outcome study of robotic radical prostatectomy with phenylephrine infiltration for hemostasis (57 men, IIEF >= 20): continence by pad use, potency by intercourse; format: in vivo, human
Method: (§1) A group of men who were in need of a prostatectomy were tested. All men undergoing robotic radical prostatectomy after June 2009 were given informed consent regard to and asked to participate in a prospective study of outcomes of robotic radical prostatectomy. Baseline data were obtained preoperatively with regard to sexual and urinary function using self-administered International Index of Erectile Function and International Prostate Symptom Score Questionnaires. Additionally, patients were asked if they had experienced intercourse, urinary incontinence or pad used in the 4 weeks prior to the initial screening visit. Only patients with a pre-operative score on the International Index of Erectile Function of greater than or equal to 20 were included in the post-operative analysis of continence and potency.
(§2) A standard method of prostatectomy was used except that hemostasis was achieved by the infiltration of phenylephrine at a concentration of 100 micrograms per milliliter into the anterior and antero lateral bladder neck (1000 micrograms), right lateral bladder neck (1,000 micrograms), left lateral bladder neck (1,000 micrograms), right prostatic vascular pedicle and neurovascular margin (1,000 micrograms) and left prostatic vascular pedicles and neurovascular margin (1,000 micrograms) for a total of 5,000 micrograms of the agent. Sharp cold dissection was then performed with either the Snap Blade or the Shears with rare spot use of bipolar cautery. Monopolar cautery was not used during any part of the procedure.
Continence was assessed in the post-operative period by pad use with one pad per day or less being considered as “socially continent.” The use of zero pads per day was considered “absolutely continent” Or “complete continence.” The time necessary to achieve each of these milestones was recorded individually for each subject. The end point of sexual recovery was intercourse, and the experience of intercourse was monitored at each post-operative visit. Intercourse was experienced by 21% of men within the 4 weeks prior to initial evaluation. […] Additional follow-up evaluations were done at 8 and 12 weeks post-operative time points. […] Intercourse at the 9 month interval (39 weeks) was established by phone interview in those men not reporting intercourse at the 6 month visit, and for whom interim follow up was not scheduled.
All patients in this study were given informed consent for participation in a prospective study of outcomes of robotic radical prostatectomy. No patients withdrew. Fifty seven (57) men among all patients operated had IIEF scores of 20 or greater. Two patients refused or were lost to follow-up for other reasons. All observations were collected in a prospective fashion and maintained in our IRB approved database of patients having robotic surgery.
Analysis of differences in means was performed by Student's t-test. The differences in proportions were calculated by the Chi-squared test. The probability of return of social continence, absolute continence, and the probability of intercourse was calculated by the Kaplan Meier function.

[2] = test system: men undergoing robotic radical prostatectomy; assay: Ongoing study of the 57 subjects plus 23 new subjects (80 men): intercourse and pad use after prostatectomy with phenylephrine infiltration; format: in vivo, human; details: for Intercourse: reflects use of phosphodiesterase inhibitors
Method: as §1, §2
Continence was assessed in the post-operative period by pad use with one pad per day or less being considered as “socially continent.” The use of zero pads per day was considered “absolutely continent” Or “complete continence.” The time necessary to achieve each of these milestones was recorded individually for each subject. The end point of sexual recovery was intercourse, and the experience of intercourse was monitored at each post-operative visit. Intercourse was experienced by 21% of men within the 4 weeks prior to initial evaluation. It is noteworthy that two (2) weeks lapsed between the surgery and the removal of the urinary catheter, thus the initial evaluation of sexual function occurred 2 weeks following removal of the catheter, or 4 weeks following surgery. Additional follow-up evaluations were done at 8 and 12 weeks post-operative time points. […] Intercourse at the 9 month interval (39 weeks) was established by phone interview in those men not reporting intercourse at the 6 month visit, and for whom interim follow up was not scheduled.
An ongoing study of the 57 subjects described above as well as an additional 23 new subjects was also performed.

[3] = 2 weeks postoperative, 57 patients
[4] = 4 weeks postoperative, 57 patients
[5] = 6 weeks postoperative, 57 patients
[6] = 8 weeks postoperative, 56 patients
[7] = 12 weeks postoperative, 55 patients
[8] = 26 weeks postoperative, 46 patients
[9] = 39 weeks postoperative, 38 patients
[10] = 52 weeks postoperative, 37 patients
[11] = 78 weeks postoperative, 23 patients
[12] = 12 weeks (3 mos) post op, 77 patients
[13] = 26 weeks (6 mos) post op, 71 patients
[14] = 39 weeks (9 mos) post op, 63 patients
[15] = 52 weeks (12 mos) post op, 53 patients
[16] = 78 weeks (1.5 yrs) post op, 30 patients
[17] = 104 weeks (2.0 yrs) post op, 14 patients
[18] = within about 52 weeks following surgery, FIG. 4

SMILES: CNC[C@H](O)c1cccc(O)c1 [phenylephrine]
- Complete Continence Number (%) [1, 3]: 10 (18%) Number (%)
- Potency Number (%) [1, 3]: 7 (12%) Number (%)
- Social Continence Number (%) ([1]; 2 weeks postoperative, 57 patients, 5,000 micrograms phenylephrine infiltrated): 20 (35%) Number (%)
- Complete Continence Number (%) [1, 4]: 17 (30%) Number (%)
- Potency Number (%) [1, 4]: 12 (21%) Number (%)
- Social Continence Number (%) [1, 4]: 31 (54%) Number (%)
- Complete Continence Number (%) [1, 5]: 16 (28%) Number (%)
- Potency Number (%) [1, 5]: 14 (25%) Number (%)
- Social Continence Number (%) [1, 5]: 32 (56%) Number (%)
- Complete Continence Number (%) [1, 6]: 17 (30%) Number (%)
- Potency Number (%) [1, 6]: 15 (27%) Number (%)
- Social Continence Number (%) [1, 6]: 33 (58%) Number (%)
- Complete Continence Number (%) [1, 7]: 20 (36%) Number (%)
- Potency Number (%) [1, 7]: 23 (42%) Number (%)
- Social Continence Number (%) [1, 7]: 40 (73%) Number (%)
- Complete Continence Number (%) [1, 8]: 26 (57%) Number (%)
- Potency Number (%) [1, 8]: 24 (52%) Number (%)
- Social Continence Number (%) [1, 8]: 40 (87%) Number (%)
- Complete Continence Number (%) [1, 9]: 24 (63%) Number (%)
- Potency Number (%) [1, 9]: 20 (53%) Number (%)
- Social Continence Number (%) [1, 9]: 34 (89%) Number (%)
- subjects at risk with social continence ([1]; 52-week mark, Kaplan Meier plot FIG. 1): 100%
- Complete Continence Number (%) [1, 10]: 35 (95%) Number (%)
- Potency Number (%) [1, 10]: 34 (92%) Number (%)
- Social Continence Number (%) [1, 10]: 37 (100%) Number (%)
- subjects with complete continence ([1]; 78-week time point, Kaplan Meier plot FIG. 2): 100%
- potency following surgery ([1]; 78-week time point, Kaplan Meier plot FIG. 3): Complete potency was achieved
- Complete Continence Number (%) [1, 11]: 23 (100%) Number (%)
- Potency Number (%) [1, 11]: 23 (100%) Number (%)
- Social Continence Number (%) [1, 11]: 23 (100%) Number (%)
- Potency Number (%) ([1]; week 0 (pre-surgical baseline), 57 patients, intercourse): 51 (89%) Number (%)
- Social Continence Number (%) ([1]; week 0 (pre-surgical baseline), 57 patients, one pad per day or less): 57 (100%) Number (%)
- Complete Continence Number (%) ([1]; week 0 (pre-surgical baseline), 57 patients, zero pads per day): 57 (100%) Number (%)
- men who experienced intercourse ([1]; within the 4 weeks prior to initial evaluation (4 weeks following surgery)): 21%
- One or less pad per 24 hours ([2]; 2 weeks post op, 79 patients): 32%
- Zero Pads per 24 hours ([2]; 2 weeks post op, 79 patients): 18%
- Intercourse ([2]; 2 weeks post op, 79 patients): 10%
- One or less pad per 24 hours ([2]; 4 weeks post op, 78 patients): 49%
- Zero Pads per 24 hours ([2]; 4 weeks post op, 78 patients): 28%
- Intercourse ([2]; 4 weeks post op, 78 patients): 19%
- One or less pad per 24 hours ([2]; 6 weeks post op, 77 patients): 58%
- Zero Pads per 24 hours ([2]; 6 weeks post op, 77 patients): 27%
- Intercourse ([2]; 6 weeks post op, 77 patients): 25%
- One or less pad per 24 hours ([2]; 8 weeks post op, 77 patients): 60%
- Zero Pads per 24 hours ([2]; 8 weeks post op, 77 patients): 28%
- Intercourse ([2]; 8 weeks post op, 77 patients): 27%
- One or less pad per 24 hours [2, 12]: 73%
- Zero Pads per 24 hours [2, 12]: 36%
- Intercourse [2, 12]: 42%
- One or less pad per 24 hours [2, 13]: 89%
- Zero Pads per 24 hours [2, 13]: 52%
- Intercourse [2, 13]: 58%
- One or less pad per 24 hours [2, 14]: 92%
- Zero Pads per 24 hours [2, 14]: 65%
- Intercourse [2, 14]: 67%
- One or less pad per 24 hours [2, 15]: 100%
- Zero Pads per 24 hours [2, 15]: 85%
- Intercourse [2, 15]: 83%
- One or less pad per 24 hours [2, 16]: 100%
- Zero Pads per 24 hours [2, 16]: 83%
- Intercourse [2, 16]: 77%
- One or less pad per 24 hours [2, 17]: 100%
- Zero Pads per 24 hours [2, 17]: 93%
- Intercourse [2, 17]: 93%
- time within which social continence was achieved for all subjects ([2]; following surgery, FIG. 4): ≤ 52 weeks
- One or less pad per 24 hours ([2]; week 0 (Pre Op), 80 patients): 100%
- Zero Pads per 24 hours ([2]; week 0 (Pre Op), 80 patients): 99%
- Intercourse ([2]; week 0 (Pre Op), 80 patients): 90%
- subjects achieving absolute continence [2, 18]: more than 80%
- subjects achieving sexual function (intercourse) [2, 18]: about 80%
